Data: US11058680B2, “Combinations of opioid/TLR4 antagonists and acetaminophen for use in the treatment of emotional pain and insomnia” (Allodynic Threapeutics, LLC, priority 2016, dated 2021)
Several values for one entry are separate records, joined by “and”; a condition that tells them apart may be missing. Identical values can stand only once.

Tested on: migraine attacks
Assay: Naltrexone/acetaminophen open-label pilot study, acute treatment of migraine: headache pain (4-point scale; relief score ≤1, pain-free score = 0), associated symptoms, additional meds
Format: in vivo, human
Procedure: Sixteen unique patients were enrolled in an open phase pilot study for the acute treatment of migraine attacks, insomnia, and emotional pain. Of the sixteen patients, eleven were evaluated for one migraine attack, one for two attacks, two for four attacks, one for six attacks, and one for fourteen attacks. A total of forty-one […] treatments were evaluated. Patients received a single dose of one of the following treatment options:
The majority of the patients remained in the clinic for observation for 2 hours after dosing. They completed headache diary assessments immediately before and after dosing at time points: 7, 15, and 30 minutes; and 1, 1.5, 2, 3, 6, 12, 24, and 48 hours. Headache pain was assessed on a 4-point scale (0=none; 1=mild; 2=moderate; 3=severe). The assessment of photophobia, phonophobia, nausea, and neck/shoulder pain was assessed as present or absent. The assessment of emotional pain was recorded on a 4-point scale (0=none, 1=mild, 2=moderate, 3=severe). The assessment of difficulty sleeping or falling asleep (insomnia) was assessed on a 4-point scale (0=none, 1=mild, 2=moderate, 3=severe) at baseline, for the night before treatment and for the following nights at 24, and 48 hours. Patients recorded side effects severity at each time point. Patients recorded the time of the first rescue medication dose and all additional headache medications used within 48 hours. Patients were required to stay awake to record their assessments in the first 2 hours, sleeping was permitted thereafter. While asleep, assessments were completed according to patients' best estimation. For data analysis, it was assumed that a migraine attack is a unique patient. Patients were asked to specify (yes or no answer) to whether they experienced emotional pain symptoms such as: hurt feelings, sadness, fear, or anger. Patients who replied positively to having emotional pain were asked to specify the cause into one of the following options: relationship, work/school, money/debt, health, or loss/grief.

[1] = 3 h, NTX/APAP 3.25 mg/325 mg, NTX 3.25 mg
[2] = 3 h, NTX/APAP 5 mg/325 mg, NTX 5 mg
[3] = 3 h, NTX/APAP […]325 mg, NTX 1.5 mg
[4] = 3 h, naltrexone/acetaminophen 2.25 mg/325 mg (N=21), naltrexone 2.25 mg (N=9)
[5] = 4 h, NTX/APAP 2.25 mg/325 mg, NTX 2.25 mg
[6] = 4 h, NTX/APAP 3.25 mg/325 mg, NTX 3.25 mg
[7] = 4 h, NTX/APAP 5 mg/325 mg, NTX 5 mg
[8] = 4 h, NTX/APAP […]325 mg, NTX 1.5 mg
[9] = 4 h, naltrexone/acetaminophen 2.25 mg/325 mg (N=21), naltrexone 2.25 mg (N=9)
[10] = 6 h, NTX/APAP 2.25 mg/325 mg, NTX 2.25 mg
[11] = 6 h, NTX/APAP 3.25 mg/325 mg, NTX 3.25 mg
[12] = 6 h, NTX/APAP 5 mg/325 mg, NTX 5 mg
[13] = 6 h, NTX/APAP […]325 mg, NTX 1.5 mg
[14] = 6 h, naltrexone/acetaminophen 2.25 mg/325 mg (N=21), naltrexone 2.25 mg (N=9)
[15] = 12 h, NTX/APAP 2.25 mg/325 mg, NTX 2.25 mg
[16] = 12 h, NTX/APAP 3.25 mg/325 mg, NTX 3.25 mg
[17] = 12 h, NTX/APAP 5 mg/325 mg, NTX 5 mg
[18] = 12 h, NTX/APAP […]325 mg, NTX 1.5 mg
[19] = 12 h, naltrexone/acetaminophen 2.25 mg/325 mg (N=21), naltrexone 2.25 mg (N=9)
[20] = 24 h, NTX/APAP 2.25 mg/325 mg, NTX 2.25 mg
[21] = 24 h, NTX/APAP 3.25 mg/325 mg, NTX 3.25 mg
[22] = 24 h, NTX/APAP 5 mg/325 mg, NTX 5 mg
[23] = 24 h, NTX/APAP […]325 mg, NTX 1.5 mg
[24] = 24 h, naltrexone/acetaminophen 2.25 mg/325 mg (N=21), naltrexone 2.25 mg (N=9)
[25] = 48 h, NTX/APAP 2.25 mg/325 mg, NTX 2.25 mg
[26] = 48 h, NTX/APAP 3.25 mg/325 mg, NTX 3.25 mg
[27] = 48 h, NTX/APAP 5 mg/325 mg, NTX 5 mg
[28] = 48 h, NTX/APAP […]325 mg, NTX 1.5 mg
[29] = 48 h, naltrexone/acetaminophen 2.25 mg/325 mg (N=21), naltrexone 2.25 mg (N=9)

O=C1CC[C@@]2(O)[C@H]3Cc4ccc(O)c5c4[C@@]2(CCN3CC2CC2)[C@H]1O5 [naltrexone]
9 (100) n (%): Neck/shoulder pain-free [5] | Headache pain-relief [10] | Most bothersome symptom-free [10] | Nausea-free [10] | Neck/shoulder pain-free [10] | Phonophobia-free [10] | Headache pain-relief [15] | Most bothersome symptom-free [15] | Nausea-free [15] | Neck/shoulder pain-free [15] | Phonophobia-free [15] | Headache pain-relief [20] | Most bothersome symptom-free [20] | Nausea-free [20] | Neck/shoulder pain-free [20] | Phonophobia-free [20] | Photophobia-free [20] | Headache pain-free [25] | Headache pain-relief [25] | Most bothersome symptom-free [25] | Nausea-free [25] | Neck/shoulder pain-free [25] | Phonophobia-free [25] | Photophobia-free [25]
7 (77) n (%): Photophobia-free [5] | Headache pain-free [10] | Headache pain-free [15]
16 (100) n (%): Headache pain-relief (3 h, combined doses) | Most bothersome symptom free (3 h, combined doses) | Nausea-free (3 h, combined doses) | Neck/shoulder pain-free (3 h, combined doses) | Phonophobia-free (3 h, combined doses) | Neck/shoulder pain-free (4 h, combined doses) | Headache pain-relief (6 h, combined doses) | Most bothersome symptom-free (6 h, combined doses) | Nausea-free (6 h, combined doses) | Neck/shoulder pain-free (6 h, combined doses) | Phonophobia-free (6 h, combined doses) | Headache pain-relief (12 h, combined doses) | Most bothersome symptom-free (12 h, combined doses) | Nausea-free (12 h, combined doses) | Neck/shoulder pain-free (12 h, combined doses) | Phonophobia-free (12 h, combined doses) | Headache pain-relief (24 h, combined doses) | Most bothersome symptom-free (24 h, combined doses) | Nausea-free (24 h, combined doses) | Neck/shoulder pain-free (24 h, combined doses) | Phonophobia-free (24 h, combined doses) | Photophobia-free (24 h, combined doses) | Neck/shoulder pain-free (48 h, combined doses) | Phonophobia-free (48 h, combined doses)
0: Additional meds taken [1] | Additional meds taken [2] | Additional meds taken [3] | Additional meds taken (3 h, combined doses) | Additional meds taken [6] | Additional meds taken [7] | Additional meds taken [8] | Additional meds taken (4 h, combined doses) | Additional meds taken [11] | Additional meds taken [12] | Additional meds taken [13] | Additional meds taken (6 h, combined doses) | Additional meds taken [16] | Additional meds taken [17] | Additional meds taken [18] | Additional meds taken (12 h, combined doses) | Additional meds taken [20] | Additional meds taken [21] | Additional meds taken [22] | Additional meds taken [23] | Additional meds taken (24 h, combined doses) | Additional meds taken [26] | Additional meds taken [28]
88% and 100%: Headache pain-free [24]
8 (88) n (%): Photophobia-free (3 h, NTX/APAP 2.25 mg/325 mg, NTX 2.25 mg) | Headache pain-relief [5] | Most bothersome symptom-free [5] | Nausea-free [5] | Phonophobia-free [5] | Photophobia-free [10] | Photophobia-free [15] | Headache pain-free [20]
13 (81) n (%): Headache pain-free (4 h, combined doses)
66% and 100%: Headache pain-free [9]
88%: Headache pain-relief [9] | Most bothersome symptom-free [9]
15 (94) n (%): Photophobia-free (3 h, combined doses) | Headache pain-relief (4 h, combined doses) | Most bothersome symptom-free (4 h, combined doses) | Nausea-free (4 h, combined doses) | Phonophobia-free (4 h, combined doses) | Photophobia-free (6 h, combined doses) | Photophobia-free (12 h, combined doses) | Headache pain-free (24 h, combined doses) | Headache pain-free (48 h, combined doses) | Headache pain-relief (48 h, combined doses) | Most bothersome symptom-free (48 h, combined doses) | Nausea-free (48 h, combined doses) | Photophobia-free (48 h, combined doses)
77% and 100%: Headache pain-free [4] | Headache pain-free [14] | Headache pain-free [19]
14 (88) n (%): Headache pain-free (3 h, combined doses) | Photophobia-free (4 h, combined doses) | Headache pain-free (6 h, combined doses) | Headache pain-free (12 h, combined doses)
3 (100) n (%): Headache pain-free [1] | Headache pain-relief [1] | Most bothersome symptom free [1] | Nausea-free [1] | Neck/shoulder pain-free [1] | Phonophobia-free [1] | Photophobia-free [1] | Headache pain-free [3] | Headache pain-relief [3] | Most bothersome symptom free [3] | Nausea-free [3] | Neck/shoulder pain-free [3] | Phonophobia-free [3] | Photophobia-free [3] | Headache pain-free [6] | Headache pain-relief [6] | Most bothersome symptom-free [6] | Nausea-free [6] | Neck/shoulder pain-free [6] | Phonophobia-free [6] | Photophobia-free [6] | Headache pain-free [8] | Headache pain-relief [8] | Most bothersome symptom-free [8] | Nausea-free [8] | Neck/shoulder pain-free [8] | Phonophobia-free [8] | Photophobia-free [8] | Headache pain-free [11] | Headache pain-relief [11] | Most bothersome symptom-free [11] | Nausea-free [11] | Neck/shoulder pain-free [11] | Phonophobia-free [11] | Photophobia-free [11] | Headache pain-free [13] | Headache pain-relief [13] | Most bothersome symptom-free [13] | Nausea-free [13] | Neck/shoulder pain-free [13] | Phonophobia-free [13] | Photophobia-free [13] | Headache pain-free [16] | Headache pain-relief [16] | Most bothersome symptom-free [16] | Nausea-free [16] | Neck/shoulder pain-free [16] | Phonophobia-free [16] | Photophobia-free [16] | Headache pain-free [18] | Headache pain-relief [18] | Most bothersome symptom-free [18] | Nausea-free [18] | Neck/shoulder pain-free [18] | Phonophobia-free [18] | Photophobia-free [18] | Headache pain-free [21] | Headache pain-relief [21] | Most bothersome symptom-free [21] | Nausea-free [21] | Neck/shoulder pain-free [21] | Phonophobia-free [21] | Photophobia-free [21] | Headache pain-free [23] | Headache pain-relief [23] | Most bothersome symptom-free [23] | Nausea-free [23] | Neck/shoulder pain-free [23] | Phonophobia-free [23] | Photophobia-free [23] | Headache pain-free [26] | Headache pain-relief [26] | Most bothersome symptom-free [26] | Nausea-free [26] | Neck/shoulder pain-free [26] | Phonophobia-free [26] | Photophobia-free [26] | Neck/shoulder pain-free [28] | Phonophobia-free [28]
1: Additional meds taken [27] | Additional meds taken (48 h, combined doses)
0 (0): Additional meds taken [5] | Additional meds taken [10] | Additional meds taken [15] | Additional meds taken [25]
6 (66) n (%): Headache pain-free [5]
1 (100) n (%): Headache pain-free [2] | Headache pain-relief [2] | Most bothersome symptom free [2] | Nausea-free [2] | Neck/shoulder pain-free [2] | Phonophobia-free [2] | Photophobia-free [2] | Headache pain-free [7] | Headache pain-relief [7] | Most bothersome symptom-free [7] | Nausea-free [7] | Neck/shoulder pain-free [7] | Phonophobia-free [7] | Photophobia-free [7] | Headache pain-free [12] | Headache pain-relief [12] | Most bothersome symptom-free [12] | Nausea-free [12] | Neck/shoulder pain-free [12] | Phonophobia-free [12] | Photophobia-free [12] | Headache pain-free [17] | Headache pain-relief [17] | Most bothersome symptom-free [17] | Nausea-free [17] | Neck/shoulder pain-free [17] | Phonophobia-free [17] | Photophobia-free [17] | Headache pain-free [22] | Headache pain-relief [22] | Most bothersome symptom-free [22] | Nausea-free [22] | Neck/shoulder pain-free [22] | Phonophobia-free [22] | Photophobia-free [22] | Headache pain-free [27] | Headache pain-relief [27] | Most bothersome symptom-free [27] | Nausea-free [27] | Neck/shoulder pain-free [27] | Phonophobia-free [27] | Photophobia-free [27]
2 (66) n (%): Headache pain-free [28] | Headache pain-relief [28] | Most bothersome symptom-free [28] | Nausea-free [28] | Photophobia-free [28]
100%: Headache pain-free (3 h, naltrexone 1.5 mg (N=3)) | Headache pain-relief [4] | Most bothersome symptom-free [4] | Headache pain-free (3 h, naltrexone/acetaminophen 3.25 mg/325 mg (N=3), naltrexone 3.25 mg (N=3)) | Headache pain-free (4 h, naltrexone 1.5 mg (N=3)) | Headache pain-free (4 h, naltrexone/acetaminophen 3.25 mg/325 mg (N=3), naltrexone 3.25 mg (N=3)) | Headache pain-free (6 h, naltrexone 1.5 mg (N=3)) | Headache pain-relief [14] | Most bothersome symptom-free [14] | Headache pain-free (6 h, naltrexone/acetaminophen 3.25 mg/325 mg (N=3), naltrexone 3.25 mg (N=3)) | Headache pain-free (12 h, naltrexone 1.5 mg (N=3)) | Headache pain-relief [19] | Most bothersome symptom-free [19] | Headache pain-free (12 h, naltrexone/acetaminophen 3.25 mg/325 mg (N=3), naltrexone 3.25 mg (N=3)) | Headache pain-free (24 h, naltrexone 1.5 mg (N=3)) | Headache pain-relief [24] | Most bothersome symptom-free [24] | Headache pain-free (24 h, naltrexone/acetaminophen 3.25 mg/325 mg (N=3), naltrexone 3.25 mg (N=3)) | Headache pain-free (48 h, naltrexone 1.5 mg (N=3)) | Headache pain-free [29] | Headache pain-relief [29] | Most bothersome symptom-free [29] | Headache pain-free (48 h, naltrexone/acetaminophen 3.25 mg/325 mg (N=3), naltrexone 3.25 mg (N=3)) | Headache pain-free (from 90 minutes to 48 hours, naltrexone alone, all dosages (1.5, 2.25, 3.25, 5 mg))
